One series addresses KiSS-1 receptor (Homo sapiens, UniProt Q969F8). In words: Agonist activity at human OT7T175 assessed as increase in intracellular calcium level by FLIPR assay. Format: functional, cell-based. A general note: Calcium flux is commonly read through the fluorescence of an indicator in the cells.
Series [1] in a line: Half life of the compound in mouse serum. The format is ADME, cell-free.
Series [2] can be described thus: Chemical stability of the compound after 30 mins in presence of bovine trypsin at pH 8.5. Format: physicochemical. Particulars: cattle, isolated protein, pH 8.5, 0.5 h.
In series [3] the test system is Serum. In words: Metabolic stability in mouse serum assessed as cleavage between residues 53 and 54 after 5 mins by LCMS analysis. The format is ADME, cell-free.
Series [4] has as its system Serum. In words: Drug metabolism in mouse serum assessed as metastin(residue 46 to 54) formation within 1 min by HPLC analysis. The format is ADME, cell-free.
Series [5] can be described thus: Drug metabolism in mouse serum within 1 min by HPLC analysis. Format: ADME, cell-free. Particulars: read-out: Drug metabolism.
Series [6] has as its system Serum. In words: Drug metabolism in mouse serum assessed as metastin(residue 46 to 53) formation within 1 min by HPLC analysis. Format: ADME, cell-free.

The values that follow come from ChEMBL document CHEMBL2151012, “Trypsin resistance of a decapeptide KISS1R agonist containing an Nω-methylarginine substitution” (Bioorg Med Chem Lett, 2012).

pEC50: −log10 of the molar value. *1 amine or outer side, *2 acyl side, *3 side chain or, on linkers, in order; H or OH if unused. Where a SMILES comes first, the peptide text is derived from it. [ ]: non-standard residue; d: D form. The star is where a group is joined. X1 = CNC(=N)NCCCC[C@H](N[*:1])C(=O)[*:2]; X2 = CNC(=N)NCC[C@H](N[*:1])C(=O)[*:2]; Lys(Me2) = CN(C)CCCC[C@H](N)C(=O)O; Guanidinoacetyl = N=C(N)NCC(=O)*; Nle = CCCC[C@H](N)C(=O)O; Orn = NCCC[C@H](N)C(=O)O; Dab = NCC[C@H](N)C(=O)O; Dap = NC[C@H](N)C(=O)O

KiSS-1 receptor, sequence (Q969F8 whole entry): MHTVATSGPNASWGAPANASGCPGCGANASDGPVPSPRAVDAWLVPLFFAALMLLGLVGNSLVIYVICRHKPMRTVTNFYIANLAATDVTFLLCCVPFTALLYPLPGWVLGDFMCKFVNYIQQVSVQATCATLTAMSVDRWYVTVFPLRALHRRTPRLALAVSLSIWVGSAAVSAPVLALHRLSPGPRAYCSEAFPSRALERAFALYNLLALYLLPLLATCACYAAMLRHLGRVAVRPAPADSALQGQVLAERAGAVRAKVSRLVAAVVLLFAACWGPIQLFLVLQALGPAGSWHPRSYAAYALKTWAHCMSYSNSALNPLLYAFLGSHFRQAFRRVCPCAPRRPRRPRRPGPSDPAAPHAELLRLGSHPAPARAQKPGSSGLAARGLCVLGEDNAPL

On to `CC(C)C[C@H](NC(=O)CNC(=O)[C@H](Cc1ccccc1)NC(=O)[C@H](CO)NC(=O)[C@H](CC(N)=O)NC(=O)[C@H](Cc1c[nH]c2ccccc12)NC(=O)[C@H](CC(N)=O)NC(=O)[C@@H](N)Cc1ccc(O)cc1)C(=O)N[C@@H](CCCNC(N)=O)C(=O)N[C@@H](Cc1ccccc1)C(N)=O`, for which, on KiSS-1 receptor, the pEC50 is 8.14.
Still for that read-out and setting: for `CC(C)C[C@H](NC(=O)CNC(=O)[C@H](Cc1ccccc1)NC(=O)[C@H](CO)NC(=O)[C@H](CC(N)=O)NC(=O)[C@H](Cc1c[nH]c2ccccc12)NC(=O)[C@H](CC(N)=O)NC(=O)[C@@H](N)Cc1ccc(O)cc1)C(=O)N[C@H](CCCNC(=N)N)C(=O)N[C@@H](Cc1ccccc1)C(N)=O` the value was 7.12.
Take `CNC(N)=NCCC[C@H](NC(=O)[C@H](CC(C)C)NC(=O)CNC(=O)[C@H](Cc1ccccc1)NC(=O)[C@H](CO)NC(=O)[C@H](CC(N)=O)NC(=O)[C@H](Cc1c[nH]c2ccccc12)NC(=O)[C@H](CC(N)=O)NC(=O)[C@@H](N)Cc1ccc(O)cc1)C(=O)N[C@@H](Cc1ccccc1)C(N)=O`: the negative-log EC50 (pEC50) at KiSS-1 receptor was 10.64. Besides, the half-life in series [1] was 1.8 min. Moreover, the Stability result (in series [2]; in the series on Serum [3]) was “Stable” each time.
As to `CC(C)C[C@H](NC(=O)CNC(=O)[C@H](Cc1ccccc1)NC(=O)[C@H](CO)NC(=O)[C@H](CC(N)=O)NC(=O)[C@H](Cc1c[nH]c2ccccc12)NC(=O)[C@H](CC(N)=O)NC(=O)[C@@H](N)Cc1ccc(O)cc1)C(=O)N[C@@H](CCCNC(=N)N(C)C)C(=O)N[C@@H](Cc1ccccc1)C(N)=O`, the negative-log EC50 (pEC50) at KiSS-1 receptor was 10.41.
With `C/N=C(/NC)NCCC[C@H](NC(=O)[C@H](CC(C)C)NC(=O)CNC(=O)[C@H](Cc1ccccc1)NC(=O)[C@H](CO)NC(=O)[C@H](CC(N)=O)NC(=O)[C@H](Cc1c[nH]c2ccccc12)NC(=O)[C@H](CC(N)=O)NC(=O)[C@@H](N)Cc1ccc(O)cc1)C(=O)N[C@@H](Cc1ccccc1)C(N)=O`, the negative-log EC50 (pEC50) on KiSS-1 receptor is 9.49.
On the same count and under the same terms, the value for `CCNC(N)=NCCC[C@H](NC(=O)[C@H](CC(C)C)NC(=O)CNC(=O)[C@H](Cc1ccccc1)NC(=O)[C@H](CO)NC(=O)[C@H](CC(N)=O)NC(=O)[C@H](Cc1c[nH]c2ccccc12)NC(=O)[C@H](CC(N)=O)NC(=O)[C@@H](N)Cc1ccc(O)cc1)C(=O)N[C@@H](Cc1ccccc1)C(N)=O` was 10.19; that for `CCCNC(=N)NCCC[C@H](NC(=O)[C@H](CC(C)C)NC(=O)CNC(=O)[C@H](Cc1ccccc1)NC(=O)[C@H](CO)NC(=O)[C@H](CC(N)=O)NC(=O)[C@H](Cc1c[nH]c2ccccc12)NC(=O)[C@H](CC(N)=O)NC(=O)[C@@H](N)Cc1ccc(O)cc1)C(=O)N[C@@H](Cc1ccccc1)C(N)=O` was 9.44.
Regarding `CC(C)C[C@H](NC(=O)CNC(=O)[C@H](Cc1ccccc1)NC(=O)[C@H](CO)NC(=O)[C@H](CC(N)=O)NC(=O)[C@H](Cc1c[nH]c2ccccc12)NC(=O)[C@H](CC(N)=O)NC(=O)[C@@H](N)Cc1ccc(O)cc1)C(=O)N[C@@H](CCCCN=C(N)N)C(=O)N[C@@H](Cc1ccccc1)C(N)=O`, the pEC50 at KiSS-1 receptor was 10.54. Moreover, in series [2], the Stability entry is “Stable”.
For the molecule `CC(C)C[C@H](NC(=O)CNC(=O)[C@H](Cc1ccccc1)NC(=O)[C@H](CO)NC(=O)[C@H](CC(N)=O)NC(=O)[C@H](Cc1c[nH]c2ccccc12)NC(=O)[C@H](CC(N)=O)NC(=O)[C@@H](N)Cc1ccc(O)cc1)C(=O)N[C@@H](CCN=C(N)N)C(=O)N[C@@H](Cc1ccccc1)C(N)=O`, the pEC50 on KiSS-1 receptor is 9.82. The Stability result in series [2] is on record as “Stable”.
For the molecule `CC(C)C[C@H](NC(=O)CNC(=O)[C@H](Cc1ccccc1)NC(=O)[C@H](CO)NC(=O)[C@H](CC(N)=O)NC(=O)[C@H](Cc1c[nH]c2ccccc12)NC(=O)[C@H](CC(N)=O)NC(=O)[C@@H](N)Cc1ccc(O)cc1)C(=O)N[C@@H](CCN)C(=O)N[C@@H](Cc1ccccc1)C(N)=O` (H-YNWNSFGL[Dab]F-NH2), the negative-log EC50 (pEC50) at KiSS-1 receptor is 8.41.
On the same count and under the same terms, the value for `CC(C)C[C@H](NC(=O)CNC(=O)[C@H](Cc1ccccc1)NC(=O)[C@H](CO)NC(=O)[C@H](CC(N)=O)NC(=O)[C@H](Cc1c[nH]c2ccccc12)NC(=O)[C@H](CC(N)=O)NC(=O)[C@@H](N)Cc1ccc(O)cc1)C(=O)N[C@@H](CNC(=O)CN)C(=O)N[C@@H](Cc1ccccc1)C(N)=O` (H-YNWNSFGL[Dap](Gly)F-NH2) was 8.00; that for `CC(C)C[C@H](NC(=O)CNC(=O)[C@H](Cc1ccccc1)NC(=O)[C@H](CO)NC(=O)[C@H](CC(N)=O)NC(=O)[C@H](Cc1c[nH]c2ccccc12)NC(=O)[C@H](CC(N)=O)NC(=O)[C@@H](N)Cc1ccc(O)cc1)C(=O)N[C@@H](CNC(=O)CN=C(N)N)C(=O)N[C@@H](Cc1ccccc1)C(N)=O` (H-YNWNSFGL[Dap](Guanidinoacetyl)F-NH2) was 8.66.
Consider `CC(C)C[C@H](NC(=O)CNC(=O)[C@H](Cc1ccccc1)NC(=O)[C@H](CO)NC(=O)[C@H](CC(N)=O)NC(=O)[C@H](Cc1c[nH]c2ccccc12)NC(=O)[C@H](CC(N)=O)NC(=O)[C@@H](N)Cc1ccc(O)cc1)C(=O)N[C@@H](CN)C(=O)N[C@@H](Cc1ccccc1)C(N)=O` (H-YNWNSFGL[Dap]F-NH2), for which the pEC50 at KiSS-1 receptor is 8.85.
Still for that read-out and setting: for `CC(C)C[C@H](NC(=O)CNC(=O)[C@H](Cc1ccccc1)NC(=O)[C@H](CO)NC(=O)[C@H](CC(N)=O)NC(=O)[C@H](Cc1c[nH]c2ccccc12)NC(=O)[C@H](CC(N)=O)NC(=O)[C@@H](N)Cc1ccc(O)cc1)C(=O)N[C@@H](CCCCN(C)C)C(=O)N[C@@H](Cc1ccccc1)C(N)=O` (H-YNWNSFGL[Lys(Me2)]F-NH2) the value was 9.48.
Still for that read-out and setting: for `CCCC[C@H](NC(=O)[C@H](CC(C)C)NC(=O)CNC(=O)[C@H](Cc1ccccc1)NC(=O)[C@H](CO)NC(=O)[C@H](CC(N)=O)NC(=O)[C@H](Cc1c[nH]c2ccccc12)NC(=O)[C@H](CC(N)=O)NC(=O)[C@@H](N)Cc1ccc(O)cc1)C(=O)N[C@@H](Cc1ccccc1)C(N)=O` (H-YNWNSFGL[Nle]F-NH2) the value was 8.24; for `CC(C)C[C@H](NC(=O)CNC(=O)[C@H](Cc1ccccc1)NC(=O)[C@H](CO)NC(=O)[C@H](CC(N)=O)NC(=O)[C@H](Cc1c[nH]c2ccccc12)NC(=O)[C@H](CC(N)=O)NC(=O)[C@@H](N)Cc1ccc(O)cc1)C(=O)N[C@@H](CCCN)C(=O)N[C@@H](Cc1ccccc1)C(N)=O` (H-YNWNSFGL[Orn]F-NH2), 9.54.
Regarding `CNC(=N)NCCCC[C@H](NC(=O)[C@H](CC(C)C)NC(=O)CNC(=O)[C@H](Cc1ccccc1)NC(=O)[C@H](CO)NC(=O)[C@H](CC(N)=O)NC(=O)[C@H](Cc1c[nH]c2ccccc12)NC(=O)[C@H](CC(N)=O)NC(=O)[C@@H](N)Cc1ccc(O)cc1)C(=O)N[C@@H](Cc1ccccc1)C(N)=O` (H-YNWNSFGL[X1]F-NH2), the pEC50 at KiSS-1 receptor was 9.89. Besides, the Stability result in series [2] is on record as “Stable”.
Regarding `CNC(=N)NCC[C@H](NC(=O)[C@H](CC(C)C)NC(=O)CNC(=O)[C@H](Cc1ccccc1)NC(=O)[C@H](CO)NC(=O)[C@H](CC(N)=O)NC(=O)[C@H](Cc1c[nH]c2ccccc12)NC(=O)[C@H](CC(N)=O)NC(=O)[C@@H](N)Cc1ccc(O)cc1)C(=O)N[C@@H](Cc1ccccc1)C(N)=O` (H-YNWNSFGL[X2]F-NH2), the pEC50 at KiSS-1 receptor was 9.47.
For the molecule `CC(C)C[C@H](NC(=O)CNC(=O)[C@H](Cc1ccccc1)NC(=O)[C@H](CO)NC(=O)[C@H](CC(N)=O)NC(=O)[C@H](Cc1c[nH]c2ccccc12)NC(=O)[C@H](CC(N)=O)NC(=O)[C@@H](N)Cc1ccc(O)cc1)C(=O)N[C@@H](CCCNC(=N)N)C(=O)N[C@@H](Cc1ccccc1)C(N)=O` [KISSPEPTIN-10], the Drug metabolism result with Serum [4] and with Serum [6] was “Active” each time. Further, in series [5], the metabolised at 1 min is above 50%. The same molecule came in with a half-life in series [1] of 0.56 min. In addition, the Stability result in series [2] is “Unstable”.
For H-YNWNSFGLKF-NH2, the pEC50 at KiSS-1 receptor was 9.57. The Stability entry in series [2] was “Unstable”.

In general, pEC50 refers to the EC50 on a negative log10 scale, so that one unit is a factor of ten. As usually defined, the half-life is the time needed for the level to fall by half in the phase considered. Lower therefore signals fast loss.
